Test [1] concerns the target T1, Glucagon-like peptide 1 receptor (Homo sapiens, UniProt P43220). The test can be described thus: Agonist activity human GLP-1R stably expressed in HEK293 cells assessed as increase in intracellular cAMP level incubated for 30 mins by multiplate reader analysis. The test is classed as functional, cell-based.
The next test deals with Pancreatic islet. The test can be described thus: Induction of insulin secretion in mouse Pancreatic islet cells expressing hGLP1R at 10 nM measured for 2 hrs by HTRF analysis. Type of test: functional, cell-based. A general note: TR-FRET usually uses a lanthanide donor and a delayed reading to cut background.
In test [2] the test system is Mus musculus. The test can be described thus: Antidiabetic activity in hGLP1R-knock in mouse model assessed as reduction in blood glucose level at 3 mg/kg, ip pretreated with compound for 15 mins followed glucose addition and measured after 30 to 120 mins by OGTT analysis. The test is classed as functional, organism-based. To be noted: time 45-135 min.
Test [3] concerns Mus musculus. Put plainly: Antidiabetic activity in hGLP1R-knock in mouse model assessed as reduction in blood glucose level at 3 mg/kg, ip pretreated with compound for 15 mins followed glucose addition and measured after 120 mins by OGTT analysis. Type of test: functional, organism-based. The following applies: time 135.0 min.
The target of test [4] is T2, Glucagon-like peptide 2 receptor (Homo sapiens) (UniProt O95838).
T2 sequence (whole entry): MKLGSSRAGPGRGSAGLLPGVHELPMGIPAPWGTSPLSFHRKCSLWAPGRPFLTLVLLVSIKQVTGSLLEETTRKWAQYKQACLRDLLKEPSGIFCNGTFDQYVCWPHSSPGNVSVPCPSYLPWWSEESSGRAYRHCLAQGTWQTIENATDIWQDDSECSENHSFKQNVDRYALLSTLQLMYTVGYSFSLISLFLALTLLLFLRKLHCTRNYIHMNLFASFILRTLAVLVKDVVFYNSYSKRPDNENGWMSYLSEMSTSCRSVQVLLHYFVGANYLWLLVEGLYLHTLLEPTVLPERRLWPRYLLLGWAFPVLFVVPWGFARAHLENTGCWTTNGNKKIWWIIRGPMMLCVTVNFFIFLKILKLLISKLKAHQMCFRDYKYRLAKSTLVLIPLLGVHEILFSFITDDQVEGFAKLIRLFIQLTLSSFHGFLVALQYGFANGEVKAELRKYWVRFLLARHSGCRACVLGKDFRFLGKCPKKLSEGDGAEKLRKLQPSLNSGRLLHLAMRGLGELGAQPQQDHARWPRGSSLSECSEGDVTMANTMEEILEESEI
The test can be described thus: Agonist activity human GLP-2R stably expressed in HEK293 cells assessed as […] in intracellular cAMP level up to 100 uM incubated for 30 mins by multiplate reader analysis. Type of test: functional, cell-based. For orientation: Cyclic AMP is a second messenger, typically raised through Gs and lowered through Gi signalling.

Test [5] deals with T1, Glucagon-like peptide 1 receptor. The test can be described thus: Agonist activity at GLP-1R (unknown origin) transfected in HEK293 cells assessed as beta-arrestin2 recruitment incubated for 5 mins by Envision multiplate reader analysis. Type of test: functional, cell-based. (In general: Activated receptors often draw arrestin, which recruitment assays turn into a signal.)

The target is the same in test [6]. The test can be described thus: Agonist activity at GLP-1R (unknown origin) transfected in HEK293 cells assessed as beta-arrestin1 recruitment incubated for 5 mins by Envision multiplate reader analysis. The test is classed as functional, cell-based.
Test [7] has as its target T3, Gastric inhibitory polypeptide receptor (Homo sapiens) (UniProt P48546).
T3 sequence (whole entry): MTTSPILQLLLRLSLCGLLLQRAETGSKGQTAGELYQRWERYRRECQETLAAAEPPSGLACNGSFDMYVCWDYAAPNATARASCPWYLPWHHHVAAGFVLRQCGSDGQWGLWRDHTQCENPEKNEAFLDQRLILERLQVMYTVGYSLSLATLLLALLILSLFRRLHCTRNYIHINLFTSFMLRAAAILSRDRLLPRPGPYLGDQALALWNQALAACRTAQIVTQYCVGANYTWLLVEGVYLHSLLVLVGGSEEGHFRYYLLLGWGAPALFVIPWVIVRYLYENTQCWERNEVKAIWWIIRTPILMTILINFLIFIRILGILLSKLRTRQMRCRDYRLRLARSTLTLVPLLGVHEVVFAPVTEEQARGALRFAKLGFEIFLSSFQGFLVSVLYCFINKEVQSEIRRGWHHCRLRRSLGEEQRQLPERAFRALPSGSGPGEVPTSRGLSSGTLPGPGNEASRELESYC
Put plainly: Agonist activity human GIPR stably expressed in HEK293 cells assessed as […] in intracellular cAMP level up to 100 uM incubated for 30 mins by multiplate reader analysis. The test is classed as functional, cell-based.

The target of test [8] is Glucagon receptor (Homo sapiens) (UniProt P47871). The test can be described thus: Agonist activity human GCGR stably expressed in HEK293 cells assessed as […] in intracellular cAMP level up to 100 uM incubated for 30 mins by multiplate reader analysis. Type of test: functional, cell-based.
The test system of test [9] is Mus musculus. The test can be described thus: Antidiabetic activity in hGLP1R-knock in mouse model assessed as reduction in blood glucose AUC (0 to 120 mins) at 3 mg/kg, ip pretreated with compound for 15 mins followed glucose addition and measured after 120 mins by OGTT analysis. To be noted: time 135 min, 2.25 h. More on the design: scale not given: the % may be the effect or the level left. Type of test: functional.

The source made the active and inactive calls. No cut-off for these calls is given here.

T1 sequence (P43220 whole entry): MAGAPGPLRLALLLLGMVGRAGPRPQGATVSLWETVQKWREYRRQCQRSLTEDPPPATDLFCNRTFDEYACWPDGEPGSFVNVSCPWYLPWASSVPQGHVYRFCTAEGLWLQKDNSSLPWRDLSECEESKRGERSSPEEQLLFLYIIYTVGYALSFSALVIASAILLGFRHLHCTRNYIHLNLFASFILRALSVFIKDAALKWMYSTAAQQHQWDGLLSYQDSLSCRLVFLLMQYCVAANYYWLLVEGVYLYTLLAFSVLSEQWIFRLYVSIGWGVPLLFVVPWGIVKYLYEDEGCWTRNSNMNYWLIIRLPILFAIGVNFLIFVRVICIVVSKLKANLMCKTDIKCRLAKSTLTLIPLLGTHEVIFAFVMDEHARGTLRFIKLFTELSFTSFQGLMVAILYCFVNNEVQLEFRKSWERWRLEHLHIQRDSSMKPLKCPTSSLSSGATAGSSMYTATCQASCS
Chain of Glucagon receptor (Homo sapiens) (P47871 whole entry): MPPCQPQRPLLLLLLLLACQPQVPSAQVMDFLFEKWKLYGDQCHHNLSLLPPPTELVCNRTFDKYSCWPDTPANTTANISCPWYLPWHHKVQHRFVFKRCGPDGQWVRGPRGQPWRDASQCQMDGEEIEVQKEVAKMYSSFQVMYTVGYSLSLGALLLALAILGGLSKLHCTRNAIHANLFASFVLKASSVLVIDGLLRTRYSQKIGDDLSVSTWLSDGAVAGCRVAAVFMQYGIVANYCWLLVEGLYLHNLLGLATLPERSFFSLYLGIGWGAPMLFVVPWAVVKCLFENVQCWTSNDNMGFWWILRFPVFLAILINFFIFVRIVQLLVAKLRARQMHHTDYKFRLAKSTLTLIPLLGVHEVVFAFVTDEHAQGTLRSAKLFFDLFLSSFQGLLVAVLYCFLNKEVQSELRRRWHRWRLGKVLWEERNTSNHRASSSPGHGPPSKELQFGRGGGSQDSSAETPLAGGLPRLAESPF

With `CC(C)Sc1nnc(-c2ccc3c(c2)nc(CN2CCC(c4cccc(OCc5ccc(Cl)cc5F)n4)CC2)n3C[C@@H]2CCO2)[nH]1`, the EC50 (as a rule, the midpoint of the concentration-response curve) in [1] is 5.2 nM.

`CCc1nnc(-c2ccc3c(c2)nc(CN2CCC(c4cccc(OCc5ccc(Cl)cc5F)n4)CC2)n3C[C@@H]2CCO2)[nH]1`: in test [1], the EC50 came out at 0.75 nM. Still for that read-out and setting: the figure for `O=C1NCC(CSc2nnc(-c3ccc4c(c3)nc(CN3CCC(c5cccc(OCc6ccc(Cl)cc6F)n5)CC3)n4C[C@@H]3CCO3)[nH]2)O1` (stereo partly drawn) is 0.38 nM; for `Fc1cc(Cl)ccc1COc1cccc(C2CCN(Cc3nc4cc(-c5nnc(SCc6ncc[nH]6)[nH]5)ccc4n3C[C@@H]3CCO3)CC2)n1` it is 2.5 nM. For `CC(=O)CSc1nnc(-c2ccc3c(c2)nc(CN2CCC(c4cccc(OCc5ccc(Cl)cc5F)n4)CC2)n3C[C@@H]2CCO2)[nH]1`, the EC50 in test [1] was 0.66 nM. On to `NC(=O)CCCCSc1nnc(-c2ccc3c(c2)nc(CN2CCC(c4cccc(OCc5ccc(Cl)cc5F)n4)CC2)n3C[C@@H]2CCO2)[nH]1`, for which the EC50 in test [1] was determined as 0.62 nM. Same read-out and setting: the same measure for `CSc1nnc(-c2ccc3c(c2)nc(CN2CCC(c4cccc(OCc5ccc(Cl)cc5F)n4)CC2)n3C[C@@H]2CCO2)[nH]1`: 0.67 nM. On to `N#Cc1ccc(COc2cccc(C3CCN(Cc4nc5ccc(C(=O)O)cc5n4C[C@@H]4CCO4)CC3)n2)c(F)c1`, for which the result with Pancreatic islet, in the test on Mus musculus [2] and with Mus musculus [3] was Active. Consider `COc1nnc(-c2ccc3c(c2)nc(CN2CCC(c4cccc(OCc5ccc(Cl)cc5F)n4)CC2)n3C[C@@H]2CCO2)[nH]1`, for which the EC50 in [1] was determined as 0.88 nM. Take `O=C(O)CSc1nnc(-c2ccc3c(c2)nc(CN2CCC(c4cccc(OCc5ccc(Cl)cc5F)n4)CC2)n3C[C@@H]2CCO2)[nH]1`: in test [1], the EC50 is 1 nM. On to `OCCCSc1nnc(-c2ccc3c(c2)nc(CN2CCC(c4cccc(OCc5ccc(Cl)cc5F)n4)CC2)n3C[C@@H]2CCO2)[nH]1`, for which the EC50 in test [1] stood at 0.48 nM. Same read-out and setting: the same measure for `CN(C)c1nnc(-c2ccc3c(c2)nc(CN2CCC(c4cccc(OCc5ccc(Cl)cc5F)n4)CC2)n3C[C@@H]2CCO2)[nH]1`: 6.8 nM. As to `OCCSc1nnc(-c2ccc3c(c2)nc(CN2CCC(c4cccc(OCc5ccc(Cl)cc5F)n4)CC2)n3C[C@@H]2CCO2)[nH]1`, the result in test [4], in test [7] and in test [8] was inactive. For the same compound, the EC50 in [5] is 581 nM; in test [6], 936 nM; in test [1], 0.065 nM. The result in the test on Pancreatic islet, in the test with Mus musculus [2] and in the test on Mus musculus [3] was Active. For the same compound, the Activity with Mus musculus [9] came to 50%. On to `N=C(CSc1nnc(-c2ccc3c(c2)nc(CN2CCC(c4cccc(OCc5ccc(Cl)cc5F)n4)CC2)n3C[C@@H]2CCO2)[nH]1)NO`, for which the EC50 in test [1] was determined as 0.52 nM.

With `N=C(N)CSc1nnc(-c2ccc3c(c2)nc(CN2CCC(c4cccc(OCc5ccc(Cl)cc5F)n4)CC2)n3C[C@@H]2CCO2)[nH]1`, the 50% effective concentration (EC50) in test [1] worked out at 2.8 nM. With `CC(C)CSc1nnc(-c2ccc3c(c2)nc(CN2CCC(c4cccc(OCc5ccc(Cl)cc5F)n4)CC2)n3C[C@@H]2CCO2)[nH]1`, the EC50 in test [1] stood at 22 nM. Turning to `OCCCCSc1nnc(-c2ccc3c(c2)nc(CN2CCC(c4cccc(OCc5ccc(Cl)cc5F)n4)CC2)n3C[C@@H]2CCO2)[nH]1`, the EC50 in [1] was determined as 4 nM. `NC(=O)CCCSc1nnc(-c2ccc3c(c2)nc(CN2CCC(c4cccc(OCc5ccc(Cl)cc5F)n4)CC2)n3C[C@@H]2CCO2)[nH]1`: the EC50 in test [5] turned out to be 322 nM; in test [6], 566 nM; in test [1], 0.1 nM. Turning to `COCCSc1nnc(-c2ccc3c(c2)nc(CN2CCC(c4cccc(OCc5ccc(Cl)cc5F)n4)CC2)n3C[C@@H]2CCO2)[nH]1`, in [1], the EC50 worked out at 3.4 nM. As to `NC(=O)CCSc1nnc(-c2ccc3c(c2)nc(CN2CCC(c4cccc(OCc5ccc(Cl)cc5F)n4)CC2)n3C[C@@H]2CCO2)[nH]1`, in test [1], the EC50 was 0.59 nM.

In the case of `N#CCSc1nnc(-c2ccc3c(c2)nc(CN2CCC(c4cccc(OCc5ccc(Cl)cc5F)n4)CC2)n3C[C@@H]2CCO2)[nH]1`, in test [1], the EC50 stood at 0.67 nM. The same measure, in the same setting: the figure for `NC(=O)CSc1nnc(-c2ccc3c(c2)nc(CN2CCC(c4cccc(OCc5ccc(Cl)cc5F)n4)CC2)n3C[C@@H]2CCO2)[nH]1` is 0.35 nM. As to `Fc1cc(Cl)ccc1COc1cccc(C2CCN(Cc3nc4cc(-c5nnc(C(F)(F)F)[nH]5)ccc4n3C[C@@H]3CCO3)CC2)n1`, the concentration giving a half-maximal response (EC50) in [1] is 0.46 nM. Still for that read-out and setting: the same measure for `CSc1nnc(-c2ccc3c(c2)nc(CN2CCC(c4cccc(OCc5ccc(Cl)cc5F)n4)CC2)n3C[C@@H]2CCO2)n1C`: 8.5 nM; for `Fc1cc(Cl)ccc1COc1cccc(C2CCN(Cc3nc4cc(-c5nnc(SCC6CC6)[nH]5)ccc4n3C[C@@H]3CCO3)CC2)n1`: 50 nM. The same measure, in the same setting: the same measure for `CCSc1nnc(-c2ccc3c(c2)nc(CN2CCC(c4cccc(OCc5ccc(Cl)cc5F)n4)CC2)n3C[C@@H]2CCO2)[nH]1`: 1.1 nM. Still for that read-out and setting: the same measure for `NCCSc1nnc(-c2ccc3c(c2)nc(CN2CCC(c4cccc(OCc5ccc(Cl)cc5F)n4)CC2)n3C[C@@H]2CCO2)[nH]1`: 0.42 nM. Regarding `NC(=O)NCCSc1nnc(-c2ccc3c(c2)nc(CN2CCC(c4cccc(OCc5ccc(Cl)cc5F)n4)CC2)n3C[C@@H]2CCO2)[nH]1`, the EC50 is 349 nM in test [5], 364 nM in test [6] and 0.11 nM in test [1].

These data come from ChEMBL document CHEMBL5550163, “A novel approach to exploit Small-Molecule glucagon-like Peptide-1 receptor agonists with high potency” (Bioorg Med Chem, 2024).
